Converted amounts (≈) assume the structure as drawn.
What was measured:
Assay in all cases: In vitro antibacterial activity test (broth microdilution)
Type in all cases: cell-based
[1] = system: K. pneumoniae β11; settings: Klebsiella pneumoniae; K. pneumoniae β11; read-out: MIC90
Procedure, shortened: (§1)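 Stocks at 10,240 ug/mL in DMSO, serially diluted in DMSO then water to final 0.0626–128 ug/mL (2.5% V/V DMSO). CLSI broth microdilution; MIC90, ug/mL.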

[2] = system: K. pneumoniae β9; settings: Klebsiella pneumoniae, K. pneumoniae β9; read-out: MIC90
Procedure, shortened: as §1

[3] = system: E. coli AG100; settings: Escherichia coli, AG100, E. coli AG100; read-out: MIC90
Procedure, shortened: as §1

[4] = system: A. baumannii 52; settings: Acinetobacter baumannii; A. baumannii 52; read-out: MIC90
Procedure, shortened: as §1

[5] = system: K. pneumoniae β14; settings: Klebsiella pneumoniae, read-out: MIC90
Procedure, shortened: as §1

[6] = system: K. pneumoniae β10; settings: Klebsiella pneumoniae; K. pneumoniae β10; read-out: MIC90
Procedure, shortened: as §1

[7] = system: E. cloacae β19; settings: Enterobacter cloacae, read-out: MIC90
Procedure, shortened: as §1

[8] = system: K. pneumoniae β13; settings: Klebsiella pneumoniae, K. pneumoniae β13; read-out: MIC90
Procedure, shortened: as §1

[9] = system: P. aeruginosa 43; settings: Pseudomonas aeruginosa; P. aeruginosa 43; read-out: MIC90
Procedure, shortened: as §1

[10] = system: M. catarrhalis 2524; settings: Moraxella catarrhalis; M. catarrhalis 2524; read-out: MIC90
Procedure, shortened: as §1

[11] = system: P. aeruginosa 1912E; settings: Pseudomonas aeruginosa, 1912E, read-out: MIC90
Procedure, shortened: as §1

[12] = system: P. aeruginosa 6065Y; settings: Pseudomonas aeruginosa, read-out: MIC90
Procedure, shortened: as §1

[13] = system: P. aeruginosa 40; settings: Pseudomonas aeruginosa, 40, P. aeruginosa 40; read-out: MIC90
Procedure, shortened: as §1

[14] = system: K. pneumoniae 2011E; settings: Klebsiella pneumoniae, 2011E, K. pneumoniae 2011E; read-out: MIC90
Procedure, shortened: as §1

[15] = system: E. coli β4; settings: Escherichia coli, read-out: MIC90
Procedure, shortened: as §1

[16] = system: A. calcoaceticus ATCC15473; settings: Acinetobacter calcoaceticus; A. calcoaceticus ATCC15473; read-out: MIC90
Procedure, shortened: as §1

[17] = system: P. aeruginosa 37; settings: Pseudomonas aeruginosa, 37, P. aeruginosa 37; read-out: MIC90
Procedure, shortened: as §1

[18] = system: A. baumannii 49; settings: Acinetobacter baumannii; A. baumannii 49; read-out: MIC90
Procedure, shortened: as §1

[19] = system: A. baumannii 46; settings: Acinetobacter baumannii; A. baumannii 46; read-out: MIC90
Procedure, shortened: as §1

Row | Structure (SMILES) | MIC90 [1] | MIC90 [2] | MIC90 [3] | MIC90 [4] | MIC90 [5] | MIC90 [6] | MIC90 [7] | MIC90 [8] | MIC90 [9] | MIC90 [10] | MIC90 [11] | MIC90 [12] | MIC90 [13] | MIC90 [14] | MIC90 [15] | MIC90 [16] | MIC90 [17] | MIC90 [18] | MIC90 [19]
1 | CC(C)(O/N=C(\C(=O)N[C@@H]1C(=O)N2C(C(=O)[O-])=C(/C=C/C[n+]3cnc(N)c(NC(=O)CCNC(=O)c4cc(=O)c(O)c[nH]4)c3)CSC12)c1csc(N)n1)C(=O)O (some centres unmarked) [Compound 13] | 64 µg/mL (≈ 78.8 µM) | 1 µg/mL (≈ 1.23 µM) | 1 µg/mL (≈ 1.23 µM) | 128 µg/mL (≈ 158 µM) | 8 µg/mL (≈ 9.85 µM) | 1 µg/mL (≈ 1.23 µM) | 8 µg/mL (≈ 9.85 µM) | 1 µg/mL (≈ 1.23 µM) | 4 µg/mL (≈ 4.93 µM) | 2 µg/mL (≈ 2.46 µM) | 2 µg/mL (≈ 2.46 µM) | 8 µg/mL (≈ 9.85 µM) | 2 µg/mL (≈ 2.46 µM) | 2 µg/mL (≈ 2.46 µM) | 2 µg/mL (≈ 2.46 µM) | 2 µg/mL (≈ 2.46 µM) | 8 µg/mL (≈ 9.85 µM) | > 128 µg/mL | 8 µg/mL (≈ 9.85 µM)
2 | CC(C)(O/N=C(\C(=O)N[C@@H]1C(=O)N2C(C(=O)[O-])=C(/C=C/C[n+]3cnc(N)c(NC(=O)c4cc(=O)c(O)cn4O)c3)CSC12)c1csc(N)n1)C(=O)O (some centres unmarked) [Compound 14] | 64 µg/mL (≈ 84.6 µM) | 2 µg/mL (≈ 2.64 µM) | 0.25 µg/mL (≈ 0.33 µM) | 8 µg/mL (≈ 10.6 µM) | 8 µg/mL (≈ 10.6 µM) | 0.5 µg/mL (≈ 0.661 µM) | 64 µg/mL (≈ 84.6 µM) | 0.5 µg/mL (≈ 0.661 µM) | 0.25 µg/mL (≈ 0.33 µM) | 0.25 µg/mL (≈ 0.33 µM) | 1 µg/mL (≈ 1.32 µM) | 2 µg/mL (≈ 2.64 µM) | 0.25 µg/mL (≈ 0.33 µM) | 2 µg/mL (≈ 2.64 µM) | 1 µg/mL (≈ 1.32 µM) | 0.25 µg/mL (≈ 0.33 µM) | 16 µg/mL (≈ 21.1 µM) | > 128 µg/mL | 2 µg/mL (≈ 2.64 µM)
3 | CC(C)(O/N=C(\C(=O)N[C@@H]1C(=O)N2C(C(=O)[O-])=C(C[n+]3cnc(N)c(NCCNC(=O)c4cc(=O)c(O)cn4O)c3)CSC12)c1nc(N)sc1Cl)C(=O)O (some centres unmarked) [Compound 15] | 64 µg/mL (≈ 79.2 µM) | 4 µg/mL (≈ 4.95 µM) | 2 µg/mL (≈ 2.47 µM) | 2 µg/mL (≈ 2.47 µM) | 128 µg/mL (≈ 158 µM) | 0.25 µg/mL (≈ 0.309 µM) | 32 µg/mL (≈ 39.6 µM) | 2 µg/mL (≈ 2.47 µM) | 0.25 µg/mL (≈ 0.309 µM) | 0.25 µg/mL (≈ 0.309 µM) | 0.5 µg/mL (≈ 0.619 µM) | 1 µg/mL (≈ 1.24 µM) | 0.5 µg/mL (≈ 0.619 µM) | 8 µg/mL (≈ 9.9 µM) | 16 µg/mL (≈ 19.8 µM) | 0.5 µg/mL (≈ 0.619 µM) | 0.125 µg/mL (≈ 0.155 µM) | 8 µg/mL (≈ 9.9 µM) | 128 µg/mL (≈ 158 µM)
4 | CC(C)(O/N=C(\C(=O)N[C@@H]1C(=O)N2C(C(=O)[O-])=C(C[n+]3cnc(N)c(NCCNC(=O)c4cc(=O)c(O)cn4O)c3)CSC12)c1nsc(N)n1)C(=O)O (some centres unmarked) [Compound 16] | > 128 µg/mL | 128 µg/mL (≈ 165 µM) | 1 µg/mL (≈ 1.29 µM) | 32 µg/mL (≈ 41.3 µM) | 128 µg/mL (≈ 165 µM) | 2 µg/mL (≈ 2.58 µM) | 16 µg/mL (≈ 20.7 µM) | 32 µg/mL (≈ 41.3 µM) | 2 µg/mL (≈ 2.58 µM) | 1 µg/mL (≈ 1.29 µM) | 1 µg/mL (≈ 1.29 µM) | 2 µg/mL (≈ 2.58 µM) | 0.25 µg/mL (≈ 0.323 µM) | 8 µg/mL (≈ 10.3 µM) | 4 µg/mL (≈ 5.16 µM) | 0.25 µg/mL (≈ 0.323 µM) | 0.5 µg/mL (≈ 0.645 µM) | > 128 µg/mL | 2 µg/mL (≈ 2.58 µM)
5 | C[C@H](O/N=C(\C(=O)N[C@@H]1C(=O)N2C(C(=O)[O-])=C(C[n+]3cnc(N)c(NCCNC(=O)c4cc(=O)c(O)c[nH]4)c3)CSC12)c1nc(N)sc1Cl)C(=O)O (some centres unmarked) [Compound 17] | 32 µg/mL (≈ 41.1 µM) | 1 µg/mL (≈ 1.29 µM) | 1 µg/mL (≈ 1.29 µM) | 2 µg/mL (≈ 2.57 µM) | 32 µg/mL (≈ 41.1 µM) | 4 µg/mL (≈ 5.14 µM) | 2 µg/mL (≈ 2.57 µM) | 1 µg/mL (≈ 1.29 µM) | 2 µg/mL (≈ 2.57 µM) | 0.125 µg/mL (≈ 0.161 µM) | 2 µg/mL (≈ 2.57 µM) | 2 µg/mL (≈ 2.57 µM) | 8 µg/mL (≈ 10.3 µM) | 4 µg/mL (≈ 5.14 µM) | 4 µg/mL (≈ 5.14 µM) | 0.5 µg/mL (≈ 0.643 µM) | 8 µg/mL (≈ 10.3 µM) | 4 µg/mL (≈ 5.14 µM) | 16 µg/mL (≈ 20.6 µM)
6 | CC(C)(O/N=C(\C(=O)N[C@@H]1C(=O)N2C(C(=O)[O-])=C(C[n+]3cnc(N)c(NC(=O)CCNC(=O)c4cc(=O)c(O)cn4O)c3)CSC12)c1nc(N)sc1Cl)C(=O)O (some centres unmarked) [Compound 18] | 64 µg/mL (≈ 76.5 µM) | 8 µg/mL (≈ 9.57 µM) | 2 µg/mL (≈ 2.39 µM) | 2 µg/mL (≈ 2.39 µM) | 128 µg/mL (≈ 153 µM) | 4 µg/mL (≈ 4.78 µM) | 64 µg/mL (≈ 76.5 µM) | 4 µg/mL (≈ 4.78 µM) | 0.25 µg/mL (≈ 0.299 µM) | 0.5 µg/mL (≈ 0.598 µM) | 1 µg/mL (≈ 1.2 µM) | 2 µg/mL (≈ 2.39 µM) | 2 µg/mL (≈ 2.39 µM) | 16 µg/mL (≈ 19.1 µM) | 16 µg/mL (≈ 19.1 µM) | 1 µg/mL (≈ 1.2 µM) | 0.25 µg/mL (≈ 0.299 µM) | 8 µg/mL (≈ 9.57 µM) | 128 µg/mL (≈ 153 µM)
7 | CC(C)(O/N=C(\C(=O)N[C@@H]1C(=O)N2C(C(=O)[O-])=C(C[n+]3cnc(N)c(NC(=O)CCNC(=O)c4cc(=O)c(O)cn4O)c3)CSC12)c1nsc(N)n1)C(=O)O (some centres unmarked) [Compound 19] | > 128 µg/mL | 64 µg/mL (≈ 79.7 µM) | 1 µg/mL (≈ 1.25 µM) | 8 µg/mL (≈ 9.97 µM) | 128 µg/mL (≈ 159 µM) | 1 µg/mL (≈ 1.25 µM) | 128 µg/mL (≈ 159 µM) | 16 µg/mL (≈ 19.9 µM) | 2 µg/mL (≈ 2.49 µM) | 1 µg/mL (≈ 1.25 µM) | 2 µg/mL (≈ 2.49 µM) | 2 µg/mL (≈ 2.49 µM) | 0.5 µg/mL (≈ 0.623 µM) | 16 µg/mL (≈ 19.9 µM) | 16 µg/mL (≈ 19.9 µM) | 0.5 µg/mL (≈ 0.623 µM) | 0.5 µg/mL (≈ 0.623 µM) | 16 µg/mL (≈ 19.9 µM) | 4 µg/mL (≈ 4.98 µM)
8 | C[C@H](O/N=C(\C(=O)N[C@@H]1C(=O)N2C(C(=O)[O-])=C(C[n+]3cnc(N)c(NC(=O)CCNC(=O)c4cc(=O)c(O)cn4O)c3)CSC12)c1nc(N)sc1Cl)C(=O)O (some centres unmarked) [Compound 20] | 16 µg/mL (≈ 19.5 µM) | 2 µg/mL (≈ 2.43 µM) | 0.25 µg/mL (≈ 0.304 µM) | 2 µg/mL (≈ 2.43 µM) | 64 µg/mL (≈ 77.8 µM) | 0.5 µg/mL (≈ 0.608 µM) | 8 µg/mL (≈ 9.73 µM) | 1 µg/mL (≈ 1.22 µM) | 1 µg/mL (≈ 1.22 µM) | 0.5 µg/mL (≈ 0.608 µM) | 4 µg/mL (≈ 4.87 µM) | 1 µg/mL (≈ 1.22 µM) | 4 µg/mL (≈ 4.87 µM) | 8 µg/mL (≈ 9.73 µM) | 8 µg/mL (≈ 9.73 µM) | 1 µg/mL (≈ 1.22 µM) | 2 µg/mL (≈ 2.43 µM) | 32 µg/mL (≈ 38.9 µM) | 16 µg/mL (≈ 19.5 µM)
